According to patent US20200031805A1, “ARYL HYDROCARBON RECEPTOR (AHR) MODULATOR COMPOUNDS” (PHENEX PHARMACEUTICALS AG, priority 2017, published 2020):

These compounds were tested against T1, aryl hydrocarbon receptor (AhR) (Homo sapiens, UniProt P35869) (assay: AhR direct luciferase reporter assay in HepG2 cells (HepG2 CYP1A1-LUC)). Details: luciferase activity after 18 hours, no exogenous AhR agonist or 10 nM VAF347, read-out: AhR potency (AhR antagonistic potency, IC50).
T1 construct: The HepG2 CYP1A1-Luc cells do express basal luciferase activity that can be increased via potent AhR agonists or decreased via potent AhR antagonists; endogenous in cells; host or cells: HepG2 (DSMZ # ACC 180) stably carrying a CYP1A1 promoter-firefly luciferase reporter
T1 sequence (P35869 11-848): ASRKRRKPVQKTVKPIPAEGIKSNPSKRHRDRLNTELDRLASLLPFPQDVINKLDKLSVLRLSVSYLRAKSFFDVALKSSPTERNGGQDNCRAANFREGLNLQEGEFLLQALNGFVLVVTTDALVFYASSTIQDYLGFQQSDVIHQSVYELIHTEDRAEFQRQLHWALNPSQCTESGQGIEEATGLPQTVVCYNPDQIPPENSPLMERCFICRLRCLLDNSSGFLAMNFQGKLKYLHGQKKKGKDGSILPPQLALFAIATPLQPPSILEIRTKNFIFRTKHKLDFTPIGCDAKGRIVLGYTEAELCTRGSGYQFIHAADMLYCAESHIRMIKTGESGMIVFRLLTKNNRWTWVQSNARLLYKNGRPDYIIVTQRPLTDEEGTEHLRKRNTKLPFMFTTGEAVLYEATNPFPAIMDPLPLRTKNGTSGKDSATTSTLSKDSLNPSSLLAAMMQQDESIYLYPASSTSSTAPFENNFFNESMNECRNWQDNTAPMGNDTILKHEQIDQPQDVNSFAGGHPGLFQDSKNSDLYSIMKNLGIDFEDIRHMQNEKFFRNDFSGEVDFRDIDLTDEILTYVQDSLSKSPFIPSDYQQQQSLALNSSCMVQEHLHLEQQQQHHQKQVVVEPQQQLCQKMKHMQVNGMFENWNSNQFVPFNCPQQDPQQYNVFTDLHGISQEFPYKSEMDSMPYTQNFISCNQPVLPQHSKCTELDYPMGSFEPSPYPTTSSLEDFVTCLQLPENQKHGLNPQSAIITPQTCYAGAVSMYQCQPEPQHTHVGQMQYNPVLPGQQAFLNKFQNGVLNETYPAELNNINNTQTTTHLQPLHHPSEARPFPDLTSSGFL
Format: cell-based
Procedure: AhR Direct Luciferase Reporter Assay in HepG2 Cells.
A stable cell line (HepG2 CYP1A1-LUC) was used in which part of the promoter region of the human CYP1A1 gene is stably integrated into the genome of human HepG2 hepatocytes (DSZM # ACC 180) in front of a Photinus pyralis Firefly Luciferase gene. […] The resulting vector was linearized with NotI, transfected into HepG2 cells (DSMZ # ACC 180) and stably transfected clones selected with 250 μg/ml Hygromycin B. After repetitive rounds of subcloning and testing for robustly regulated luciferase activity after AhR agonist stimulation, a stable clonal HepG2 CYP1A1-Luc cell line was selected.
The HepG2 CYP1A1-Luc cells do express basal luciferase activity that can be increased via potent AhR agonists or decreased via potent AhR antagonists, added to the growth medium of the cells.
Cells are further cultivated for 18 hours and luciferase activities are determined from extracts of cells in buffers containing D-Luciferine and ATP using a LUMIstar Optima microplate Luminometer from BMG Labtech.

Row | IC50 [µM] | Compound
1 | < 0.1 | Cn1nccc1C(=O)Nc1ccc2cc(-c3cc(Cl)ccc3C(F)(F)F)[nH]c2c1 [6/6]
2 | 0.1 to 1 | Cn1nccc1C(=O)Nc1ccc2cc(-c3ccccc3F)[nH]c2c1 [1/1, N-(2-(2-FLUOROPHENYL)-1H-INDOL-6-YL)-1-METHYL-1H-PYRAZOLE-5-CARBOXAMIDE]
3 | < 0.1 | Cn1nccc1C(=O)Nc1ccc2cc(-c3ccccc3C(F)F)[nH]c2c1 [6/1]
4 | 0.1 to 1 | Cc1ccccc1-c1cc2ccc(NC(=O)c3ccn[nH]3)cc2[nH]1 [Example 3, N-(2-(O-TOLYL)-1H-INDOL-6-YL)-1H-PYRAZOLE-5-CARBOXAMIDE]
5 | < 0.1 | Cc1cc2cc(-c3ccccc3C(F)(F)F)[nH]c2cc1NC(=O)c1ncnn1C [Example 4, 1-METHYL-N-(5-METHYL-2-(2-(TRIFLUOROMETHYL)PHENYL)-1H-INDOL-6-YL)-1H-1,2,4-TRIAZOLE-5-CARBOXAMIDE]
6 | < 0.1 | Cc1ccccc1-c1cc2ccc(NC(=O)c3ccccn3)cc2[nH]1 [3/5, N-(2-(O-TOLYL)-1H-INDOL-6-YL)PICOLINAMIDE]
7 | < 0.1 | Cc1ccccc1-c1cc2ccc(NC(=O)c3cccn3C)cc2[nH]1 [3/2, 1-METHYL-N-(2-(O-TOLYL)-1H-INDOL-6-YL)-1H-PYRROLE-2-CARBOXAMIDE]
8 | < 0.1 | Cn1ncnc1C(=O)Nc1ccc2cc(-c3cc(F)ccc3C(F)F)[nH]c2c1 [6/3]
9 | 0.1 to 1 | Cn1nccc1C(=O)Nc1ccc2cc(-c3ccccc3Cl)[nH]c2c1 [Example 2, N-(2-(2-Chlorophenyl)-1H-indol-6-yl)-1-methyl-1H-pyrazole-5-carboxamide]
10 | < 0.1 | Cn1ncnc1C(=O)Nc1ccc2cc(-c3ccccc3C(F)(F)F)[nH]c2c1 [2/4, 1-METHYL-N-(2-(2-(TRIFLUOROMETHYL)PHENYL)-1H-INDOL-6-YL)-1H-1,2,4-TRIAZOLE-5-CARBOXAMIDE]
11 | < 0.1 | O=C(Nc1ccc2cc(-c3ccccc3C(F)(F)F)[nH]c2c1)c1ccccn1 [2/5, N-(2-(2-(TRIFLUOROMETHYL)PHENYL)-1H-INDOL-6-YL)PICOLINAMIDE]
12 | < 0.1 | Cn1ncnc1C(=O)Nc1ccc2cc(-c3cc(Cl)ccc3C(F)(F)F)[nH]c2c1 [6/5]
13 | 0.1 to 1 | Cn1nccc1C(=O)Nc1ccc2cc(-c3cccc(Cl)c3)[nH]c2c1 [1/2, N-(2-(3-CHLOROPHENYL)-1H-INDOL-6-YL)-1-METHYL-1H-PYRAZOLE-5-CARBOXAMIDE]
14 | < 0.1 | Cc1cc2cc(-c3ccccc3C(F)(F)F)[nH]c2cc1NC(=O)c1ccccn1 [4/1, N-(5-METHYL-2-(2-(TRIFLUOROMETHYL)PHENYL)-1H-INDOL-6-YL)PICOLINAMIDE]
15 | < 0.1 | Cc1ccccc1-c1cc2ccc(NC(=O)c3ccco3)cc2[nH]1 [3/3, N-(2-(O-TOLYL)-1H-INDOL-6-YL)FURAN-2-CARBOXAMIDE]
16 | < 0.1 | Cn1nccc1C(=O)Nc1ccc2cc(-c3ccccc3C(F)(F)F)[nH]c2c1 [2/1, 1-METHYL-N-(2-(2-(TRIFLUOROMETHYL)PHENYL)-1H-INDOL-6-YL)-1H-PYRAZOLE-5-CARBOXAMIDE]
17 | < 0.1 | Cc1ccccc1-c1cc2ccc(NC(=O)c3ncnn3C)cc2[nH]1 [3/1, 1-METHYL-N-(2-(O-TOLYL)-1H-INDOL-6-YL)-1H-1,2,4-TRIAZOLE-5-CARBOXAMIDE]
18 | > 1 | Cc1ccccc1-c1cc2ccc(NC(=O)c3ccnn3C(C)C)cc2[nH]1 [2/3, 1-ISOPROPYL-N-(2-(O-TOLYL)-1H-INDOL-6-YL)-1H-PYRAZOLE-5-CARBOXAMIDE]
19 | < 0.1 | Cn1ncnc1C(=O)Nc1ccc2cc(-c3ccccc3C(F)F)[nH]c2c1 [Example 6, N-(2-(2-(Difluoromethyl)phenyl)-1H-indol-6-yl)-1-methyl-1H-1,2,4-triazole-5-carboxamide]
20 | > 1 | Cc1ccccc1-c1cc2ccc(NC(=O)c3ccc(O)c(C(N)=O)c3)cc2[nH]1 [3/4, 4-HYDROXY-N^1-(2-(O-TOLYL)-1H-INDOL-6-YL)ISOPHTHALAMIDE]
21 | < 0.1 | Cn1nccc1C(=O)Nc1ccc2cc(-c3cc(F)ccc3C(F)F)[nH]c2c1 [6/4]
22 | 0.1 to 1 | Cn1nccc1C(=O)Nc1ccc2cc(-c3ccc(Cl)cc3Cl)[nH]c2c1 [2/2, N-(2-(2,4-DICHLOROPHENYL)-1H-INDOL-6-YL)-1-METHYL-1H-PYRAZOLE-5-CARBOXAMIDE]
